Usually Ki stands for a dissociation constant, usually derived from enzyme kinetics or from competition with a known ligand.

The text below walks through data of patent US8815882B2, “Pyrazole aminopyrimidine derivatives as LRRK2 modulators” (Genentech, Inc., priority 2010, dated 2014).

The structures appear in SMILES notation.

In one assay the target is T1, LRRK2 (Homo sapiens, UniProt Q5S007, G2019S).
T1 construct: purchased Invitrogen PV4882 (lot 567054A)
T1 sequence (Q5S007 whole entry G2019S): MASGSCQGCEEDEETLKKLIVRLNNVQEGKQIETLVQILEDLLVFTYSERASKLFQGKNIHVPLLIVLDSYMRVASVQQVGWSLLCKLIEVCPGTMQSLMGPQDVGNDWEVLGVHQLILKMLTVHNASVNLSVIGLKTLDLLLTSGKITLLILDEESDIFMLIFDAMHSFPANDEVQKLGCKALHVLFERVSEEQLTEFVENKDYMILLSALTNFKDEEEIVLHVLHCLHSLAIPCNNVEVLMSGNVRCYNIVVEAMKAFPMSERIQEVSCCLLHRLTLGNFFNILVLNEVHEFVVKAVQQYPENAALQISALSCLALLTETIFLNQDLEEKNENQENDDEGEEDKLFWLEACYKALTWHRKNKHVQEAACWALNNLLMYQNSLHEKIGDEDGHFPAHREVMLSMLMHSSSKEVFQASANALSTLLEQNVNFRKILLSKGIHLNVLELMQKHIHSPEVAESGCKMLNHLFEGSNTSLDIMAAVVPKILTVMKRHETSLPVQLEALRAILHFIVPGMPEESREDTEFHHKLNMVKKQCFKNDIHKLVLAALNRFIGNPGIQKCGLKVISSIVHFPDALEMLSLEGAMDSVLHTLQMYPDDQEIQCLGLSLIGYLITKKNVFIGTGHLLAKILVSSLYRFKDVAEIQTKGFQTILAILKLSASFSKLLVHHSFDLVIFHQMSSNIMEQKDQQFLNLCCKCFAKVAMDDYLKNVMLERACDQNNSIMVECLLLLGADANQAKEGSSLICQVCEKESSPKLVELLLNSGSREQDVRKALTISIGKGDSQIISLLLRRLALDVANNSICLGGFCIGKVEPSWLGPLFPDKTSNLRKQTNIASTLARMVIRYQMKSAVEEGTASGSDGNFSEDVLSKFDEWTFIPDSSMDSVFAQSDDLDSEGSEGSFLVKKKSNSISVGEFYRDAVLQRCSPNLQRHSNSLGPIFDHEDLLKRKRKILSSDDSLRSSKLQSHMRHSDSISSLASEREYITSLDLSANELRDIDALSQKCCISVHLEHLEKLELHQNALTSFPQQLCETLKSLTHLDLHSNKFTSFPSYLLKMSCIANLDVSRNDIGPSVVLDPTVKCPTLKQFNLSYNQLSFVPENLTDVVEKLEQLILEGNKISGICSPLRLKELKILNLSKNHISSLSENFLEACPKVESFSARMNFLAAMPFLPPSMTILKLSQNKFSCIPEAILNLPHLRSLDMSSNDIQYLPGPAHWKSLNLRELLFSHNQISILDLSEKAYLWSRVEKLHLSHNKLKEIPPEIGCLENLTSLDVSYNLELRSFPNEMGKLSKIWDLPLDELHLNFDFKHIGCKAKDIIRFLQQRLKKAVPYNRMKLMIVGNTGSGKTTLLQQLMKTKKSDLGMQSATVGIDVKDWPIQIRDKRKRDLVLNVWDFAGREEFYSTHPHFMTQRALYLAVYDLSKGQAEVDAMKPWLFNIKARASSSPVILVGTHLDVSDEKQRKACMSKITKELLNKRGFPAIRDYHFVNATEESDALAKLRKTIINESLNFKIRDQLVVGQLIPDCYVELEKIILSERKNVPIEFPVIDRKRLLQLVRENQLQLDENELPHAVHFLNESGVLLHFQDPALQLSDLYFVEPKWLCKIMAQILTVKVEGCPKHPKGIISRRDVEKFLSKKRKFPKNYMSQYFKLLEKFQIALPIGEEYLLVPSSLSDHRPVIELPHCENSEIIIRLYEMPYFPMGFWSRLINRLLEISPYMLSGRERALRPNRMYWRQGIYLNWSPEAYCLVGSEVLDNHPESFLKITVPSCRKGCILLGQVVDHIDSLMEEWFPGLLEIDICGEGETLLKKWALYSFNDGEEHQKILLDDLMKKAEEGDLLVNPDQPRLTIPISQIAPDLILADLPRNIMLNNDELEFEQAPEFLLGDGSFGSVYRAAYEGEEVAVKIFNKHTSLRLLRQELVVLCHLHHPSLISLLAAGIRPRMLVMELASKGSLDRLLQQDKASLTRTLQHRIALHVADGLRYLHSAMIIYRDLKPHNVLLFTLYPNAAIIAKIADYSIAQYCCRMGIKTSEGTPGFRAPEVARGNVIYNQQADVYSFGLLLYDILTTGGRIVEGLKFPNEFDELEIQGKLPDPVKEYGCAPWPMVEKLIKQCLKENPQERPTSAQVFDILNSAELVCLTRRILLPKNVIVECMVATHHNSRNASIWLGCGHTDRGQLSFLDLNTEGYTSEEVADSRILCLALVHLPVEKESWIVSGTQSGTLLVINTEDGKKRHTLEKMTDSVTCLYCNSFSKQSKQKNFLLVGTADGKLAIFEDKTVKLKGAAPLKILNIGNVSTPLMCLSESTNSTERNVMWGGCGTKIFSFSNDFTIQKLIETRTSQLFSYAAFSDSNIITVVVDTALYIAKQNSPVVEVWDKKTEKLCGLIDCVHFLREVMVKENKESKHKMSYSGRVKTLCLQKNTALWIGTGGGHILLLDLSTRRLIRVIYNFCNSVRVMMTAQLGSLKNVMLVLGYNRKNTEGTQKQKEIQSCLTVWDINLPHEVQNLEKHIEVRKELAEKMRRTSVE
Put plainly: In Vitro LRRK2 Assay (LabChip 3000, fluorescently-labeled peptide substrate, ATP). The format is biochemical. The settings on record: Table 9; LRRK2 Ki (micromolar); read-out: LRRK2 Ki (KI). The method, boiled down:
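LRRK2, fluorescent peptide substrate (diluted to 4 μM before mixing), ATP and compound were incubated 2 h in the dark, then stopped. Phosphorylated and unphosphorylated peptide were separated by capillary electrophoresis and quantified by fluorescence. Ki was fitted with a tight-binding equation including enzyme concentration, S and Km; IC50 or percent inhibition were also reported.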
In the case of `CCNc1nc(Nc2cn(C3COC3)nc2C)ncc1C#N` [Example 373, 4-(ethylamino)-2-(3-methyl-1-(oxetan-3-yl)-1H-pyrazol-4-ylamino) pyrimidine-5-carbonitrile], the Ki stood at 22.8 nM.

On to `CNc1nc(Nc2cn(CC3CC3)nc2C)ncc1C#N` [Example 380, 2-(1-(cyclopropylmethyl)-3-methyl-1H-ylamino)-4-(methylamino) pyrimidine-5-carbonitrile], for which the Ki is 45 nM.

Regarding `CNc1nc(Nc2cnn(-c3cc(F)cc(F)c3)c2C)ncc1C#N` [Example 390, 2-[1-(3,5-Difluoro-phenyl)-5-methyl-1H-pyrazol-4-ylamino]-4-methylamino-pyrimidine-5-carbonitrile], the Ki was found to be 241 nM.

As for `CNc1nc(Nc2cnn(C3CCOCC3)c2Cl)ncc1C#N` [Example 383, 2-(5-chloro-1-(tetrahydro-2H-pyran-4-yl)-1H-pyrazol-4-ylamino)-4-(methylamino) pyrimidine-5-carbonitrile], the Ki was 9.6 nM.

For the molecule `CNc1nc(Nc2cnn(-c3ccc(Cl)cc3)c2C)ncc1C#N` [Example 369, 2-(1-(4-chlorophenyl)-5-methyl-H-pyrazol-4-ylamino)-4-(methylamino) pyrimidine-5-carbonitrile], the Ki was determined as 2.5 nM.

The assay is the same for the next values; noted with them: Table 10; LRRK2 Ki (micromolar); read-out: LRRK2 Ki (KI).
As for `CCNC(=O)C(C)(C)n1cc(Nc2ncc(C(F)(F)F)c(NC)n2)c(C)n1` [Example 440, N-Ethyl-2-[3-methyl-4-(4-methylamino-5-trifluoromethyl-pyrimidin-2-ylamino)-pyrazol-1-yl]-isobutyramide], the Ki worked out at 9.5 nM.

Staying with this assay, now noted: read-out: LRRK2 Ki (KI), Table 7.
As to `CNc1nc(Nc2cnn(CCN3CCOCC3)c2)ncc1C(F)(F)F` [Example 3, N^4-methyl-N^2-(1-(2-morpholinoethyl)-1H-pyrazol-4-yl)-5-(trifluoromethyl) pyrimidine-2,4-diamine], the Ki amounted to 15 nM.

`Cc1c(Nc2ncc(Cl)c(OCC(F)F)n2)cnn1C` [Example 63, 5-chloro-4-(2,2-difluoroethoxy)-N-(1,5-dimethyl-1H-pyrazol-4-yl)pyrimidin-2-amine]: the Ki is 24 nM.

Consider `CNc1nc(Nc2cc(C3CC3)nn2C)ncc1Cl` [Example 45, 5-Chloro-N^2-(5-cyclopropyl-2-methyl-2H-pyrazol-3-yl)-N^4-methyl-pyrimidine-2,4-diamine], for which the Ki was 13.4 nM.

As to `COc1nc(Nc2cn(-c3ccc(C#N)cc3)nc2C)ncc1Cl` [Example 68, 4-(4-(5-chloro-4-methoxy-pyrimidin-2-ylamino)-3-methyl-1H-pyrazol-1-yl)benzonitrile], the Ki worked out at 2.4 nM.

The same assay, now with this note: read-out: LRRK2 Ki (KI), Table 8.
As for `CNc1nc(Nc2cn(Cc3cnccn3)nc2C)ncc1C(F)(F)F` [Example 317, N4-Methyl-N2-(3-methyl-1-pyrazin-2-ylmethyl-1H-pyrazol-4-yl)-5-trifluoromethyl-pyrimidine-2,4-diamine], the Ki was 1.2 nM.

For the molecule `CNc1nc(Nc2cn(C3CCN(C4COC4)CC3)nc2C)ncc1C(F)(F)F` [Example 131, N4-methyl-N2-(3-methyl-1-(1-(oxetan-3-yl)piperidin-4-yl)-1H-pyrazol-4-yl)-5-(trifluoromethyl) pyrimidine-2,4-diamine], the Ki amounted to 37.4 nM.

As to `CNc1nc(Nc2cn(CC(F)(F)F)nc2C)ncc1Br` [Example 95, 5-bromo-N4-methyl-N2-(3-methyl-1-(2,2,2-trifluoroethyl)-1H-pyrazol-4-yl)pyrimidine-2,4-diamine], the Ki is 1.2 nM.

With `CNc1nc(Nc2cn(Cc3cccnc3)nc2C)ncc1C(F)(F)F` [Example 289, N4-Methyl-N2-(3-methyl-1-pyridin-3-ylmethyl-1H-pyrazol-4-yl)-5-trifluoromethyl-pyrimidine-2,4-diamine], the Ki was determined as 25 nM.

Consider `CNc1nc(Nc2cnn(C3CCC(=O)NC3)c2C)ncc1C(F)(F)F` (centres unmarked) [Example 154, 5-(5-methyl-4-(4-(methylamino)-5-(trifluoromethyl)pyrimidin-2-ylamino)-1H-pyrazol-1-yl)piperidin-2-one], for which the Ki amounted to 2.2 nM.

In the case of `Cc1c(Nc2ncc(C(F)(F)F)c(NC3CC3)n2)cnn1S(C)(=O)=O` [Example 301, N4-Cyclopropyl-N2-(1-methanesulfonyl-5-methyl-1H-pyrazol-4-yl)-5-trifluoromethyl-pyrimidine-2,4-diamine], the Ki was 2.1 nM.

Regarding `CNc1nc(Nc2cnn(C3CCN(CC(F)(F)F)CC3)c2C)ncc1Br` [Example 93, 5-bromo-N4-methyl-N2-(5-methyl-1-(1-(2,2,2-trifluoroethyl)piperidin-4-yl)-1H-pyrazol-4-yl)pyrimidine-2,4-diamine], the Ki is 1.4 nM.

Consider `CCNc1nc(Nc2cnn(C3CCN(CCOC)CC3)c2C)ncc1C(F)(F)F` [Example 283, N4-Ethyl-N2-{1-[1-(2-methoxy-ethyl)-piperidin-4-yl]-5-methyl-1H-pyrazol-4-yl}-5-trifluoromethyl-pyrimidine-2,4-diamine], for which the Ki came out at 2 nM.

Take `CNc1nc(Nc2cnn(Cc3ccccn3)c2C)ncc1C(F)(F)F` [Example 212, N4-methyl-N2-(5-methyl-1-(pyridin-2-ylmethyl)-1H-pyrazol-4-yl)-5-(trifluoromethyl) pyrimidine-2,4-diamine]: the Ki came out at 2.9 nM.

Consider `CCCn1ncc(Nc2ncc(C(F)(F)F)c(NC)n2)c1C` [Example 119, N4-methyl-N2-(5-methyl-1-propyl-1H-pyrazol-4-yl)-5-(trifluoromethyl) pyrimidine-2,4-diamine], for which the Ki worked out at 5.6 nM.

Take `CCNc1nc(Nc2cn(CC(C)(C)O)nc2C2CC2)ncc1C(F)(F)F` [Example 236, 1-(3-cyclopropyl-4-(4-(ethylamino)-5-(trifluoromethyl)pyrimidin-2-ylamino)-1H-pyrazol-1-yl)-2-methylpropan-2-ol]: the Ki stood at 1.5 nM.

Take `CNc1nc(Nc2cn([C@@H](C)COC)nc2C)ncc1C(F)(F)F` [Example 275, N2-[1-((S)-2-Methoxy-1-methyl-ethyl)-3-methyl-1H-pyrazol-4-yl]-N4-methyl-5-trifluoromethyl-pyrimidine-2,4-diamine]: the Ki was 8.9 nM.

As for `CNc1nc(Nc2cnn(C3CCS(=O)(=O)CC3)c2C)ncc1C(F)(F)F` [Example 196, N4-methyl-N2-(5-methyl-1-(tetrahydro-2H-1,1-dioxo-thiopyran-4-yl)-1H-pyrazol-4-yl)-5-(trifluoromethyl) pyrimidine-2,4-diamine], the Ki amounted to 47 nM.

For the molecule `CNc1nc(Nc2cnn(CCF)c2C)ncc1C(F)(F)F` [Example 133, N2-(1-(2-fluoroethyl)-5-methyl-1H-pyrazol-4-yl)-N4-methyl-5-(trifluoromethyl) pyrimidine-2,4-diamine], the Ki was found to be 1.8 nM.

`CCNc1nc(Nc2cn(C(C)(C)C(=O)NC)nc2C)ncc1C(F)(F)F` [Example 303, 2-[4-(4-Ethylamino-5-trifluoromethyl-pyrimidin-2-ylamino)-3-methyl-pyrazol-1-yl]-N-methyl-isobutyramide]: the Ki was determined as 1.3 nM.

For the molecule `CCNc1nc(Nc2cnn(CCOC)c2C)ncc1C(F)(F)F` [Example 295, N4-Ethyl-N2-[1-(2-methoxy-ethyl)-5-methyl-1H-pyrazol-4-yl]-5-trifluoromethyl-pyrimidine-2,4-diamine], the Ki was found to be 0.4 nM.

With `CNc1nc(Nc2cn(S(=O)(=O)C3CC3)nc2C)ncc1C(F)(F)F` [Example 170, N2-(1-(cyclopropyl-sulfonyl)-3-methyl-1H-pyrazol-4-yl)-N4-methyl-5-(trifluoromethyl) pyrimidine-2,4-diamine], the Ki is 2 nM.

For the molecule `CNc1nc(Nc2cn(C3CC(C)OC(C)C3)nc2C)ncc1C(F)(F)F` (centres unmarked) [Example 191, N2-(1-(2,6-dimethyltetrahydro-2H-pyran-4-yl)-3-methyl-1H-pyrazol-4-yl)-N4-methyl-5-(trifluoromethyl) pyrimidine-2,4-diamine], the Ki came to 84.6 nM.

Turning to `CCNc1nc(Nc2cnn(S(=O)(=O)CC)c2C)ncc1C(F)(F)F` [Example 244, N4-ethyl-N2-(1-(ethylsulfonyl)-5-methyl-1H-pyrazol-4-yl)-5-(trifluoromethyl) pyrimidine-2,4-diamine], the Ki came out at 4.7 nM.

As to `CNc1nc(Nc2cnn(C3CCCOC3)c2C)ncc1C(F)(F)F` (centres unmarked) [Example 231, N4-methyl-N2-(5-methyl-1-(tetrahydro-2H-pyran-3-yl)-1H-pyrazol-4-yl)-5-(trifluoromethyl) pyrimidine-2,4-diamine], the Ki came to 1.8 nM.

In the case of `CNc1nc(Nc2cnn(C3CC(C)OC(C)C3)c2C)ncc1C(F)(F)F` (centres unmarked) [Example 272, N2-[1-(2,6-Dimethyl-tetrahydro-pyran-4-yl)-5-methyl-1H-pyrazol-4-yl]-N4-methyl-5-trifluoromethyl-pyrimidine-2,4-diamine], the Ki worked out at 5.1 nM.

On to `CNc1nc(Nc2cn(C3CCN(CCF)CC3)nc2C)ncc1C(F)(F)F` [Example 285, N2-{1-[1-(2-Fluoro-ethyl)-piperidin-4-yl]-3-methyl-1H-pyrazol-4-yl}-N4-methyl-5-trifluoromethyl-pyrimidine-2,4-diamine], for which the Ki turned out to be 28.3 nM.

As to `CNc1nc(Nc2cn(Cc3cccnn3)nc2C)ncc1C(F)(F)F` [Example 310, N4-Methyl-N2-(3-methyl-1-pyridazin-3-ylmethyl-1H-pyrazol-4-yl)-5-trifluoromethyl-pyrimidine-2,4-diamine], the Ki was 9.3 nM.

For `CCNc1nc(Nc2cn(CC(C)(C)O)nc2C(C)C)ncc1C(F)(F)F` [Example 221, 1-(4-(4-(ethylamino)-5-(trifluoromethyl)pyrimidin-2-ylamino)-3-isopropyl-1H-pyrazol-l-yl)-2-methylpropan-2-ol], the Ki is 6.1 nM.

The assay is the same for the next values; noted with them: read-out: LRRK2 Ki given in the example.
Regarding `CNc1nc(Nc2cnn(C)c2C)ncc1Br` [Example 89, 5-Bromo-N^2-(1,5-dimethyl-1H-pyrazol-4-yl)-N^4-methylpyrimidine-2,4-diamine], the Ki amounted to 17 nM.
